The nature of one data set: Stability in mice plasma. The conditions noted are these: 37 °C, 453 μg/L. The format is in vitro ADME, KM mice. On the procedure: A total of 696.5 μL of plasma from each species (healthy mice, rat, dog, monkey, and human) were spiked with 3.5 μL of TPB15 stock solution ([…] in DMSO), resulting in a final TPB15 concentration of 453 μg/L in plasma. The mixture was then aliquoted into three tubes, each with a volume of 200 μL, maintaining a final DMSO concentration of 0.5%. After incubation in a water bath at 37 °C for 0, 30, 60, 90, and 120 min, 100 µL samples were transferred into EP tubes. Subsequently, 10 µL of internal standard working solution were added, followed by vortex mixing. Then, 500 µL of ethyl acetate were added, and the mixture was vortexed again before being centrifuged at 14,800 rpm at 4 °C for 10 min. A total of 400 µL of the supernatant were transferred into a new EP tube and placed in a vacuum concentrator (Bionoon-VAC2) (Bionoon Biotech, Shanghai, China) to dry for 1 h. The dried residue was reconstituted with 100 µL of mobile phase, vortex mixed thoroughly, and centrifuged again at 14,800 rpm at 4 °C for 10 min. A volume of 5 µL of the supernatant was then taken for LC-MS/MS analysis to determine the drug concentration. Additionally, a blank control group was established, in which PBS buffer was used in place of blank plasma in the incubation system.

Data set [1] can be described thus: Metabolic stability in rat liver microsomes (RLM). Type of data set: in vitro ADME, Sprague-Dawley rat. On the procedure: (§1) A total of 450 μL liver microsomes from mice, rat, dog, monkey, and human were spiked with 0.5 μL of TPB15 solution and pre-incubated in a water bath at 37 °C for 10 min. Following this, 50 μL of NADPH were added to initiate the reaction. The concentrations of each substance in the incubation system are detailed in Table 1. After initiating the metabolic reaction, 50 μL aliquots were removed at incubation times of 0, 5, 15, 30, 45, 60, and 90 min and transferred to 150 μL of icy methanol solution containing the internal standard to terminate the reaction. The mixtures were swirled for 2 min and then centrifuged at 14,800 rpm at 4 °C for 10 min. […] Three samples were prepared in parallel at each time point. Additionally, both a positive control group and a blank control group were established. In the positive control group, substrate testosterone was incubated with liver microsomes from mice, rat, dog, monkey, and human. The concentrations of substrate testosterone were measured at 0 and 90 min, and the changes in concentration before and after incubation were compared to confirm the activity of the liver microsomes. The blank control group included one drug-containing inactivated liver microsome sample for each species. The metabolic stability parameters, including in vitro elimination half-life (T1/2) and in vitro intrinsic clearance rate (CLint), were calculated based on this graph using the following formulas: in vitro elimination half-life (T1/2) = −0.693/k and in vitro intrinsic clearance rate (CLint) = (0.693 × incubation medium (mL))/(liver microsomes (mg) × T1/2).
In general terms: Liver microsomes are a subcellular fraction often used to study metabolism.

A short description of data set [2]: Metabolic stability in dog liver microsomes (DLM). The format is in vitro ADME, beagle dog. As for the experimental part:
as §1

The next data set concerns MDA-MB-468. Details: method as in PMID 32690258. The conditions noted are these: MDA-MB-468, in vitro; cited from earlier work.
The nature of data set [3]: Plasma protein binding, overall across the five species. Type of data set: in vitro ADME, mice, rats, dogs, monkeys, humans. The conditions noted are these: monkey, human, all species tested, low, medium and high concentrations (4 to 16 μg/mL), read-out: plasma protein binding rate, overall. On the procedure:
To prepare plasma samples of TPB15 at final concentrations of 4, 8, and 16 μg/mL, 1 μL of TPB15 dissolved in dimethyl sulfoxide (DMSO) at low (400 μg/mL), medium (800 μg/mL), and high (1600 μg/mL) concentrations was added to 99 μL of blank plasma obtained from humans, rats, mice, monkeys, and dogs. Each concentration was prepared in six replicates. The samples were then divided into two groups: one for determining the pre-ultrafiltration concentration (Cpre) and the other for measuring the post-ultrafiltration concentration (Ct), following the evaluation of the non-specific binding coefficient (NSB) of TPB15 to the ultrafiltration tubes. For Cpre determination, 10 μL of the sample was mixed with 990 μL of plasma, vortexed thoroughly, and analyzed for drug concentration using the previously reported liquid chromatography–tandem mass spectrometry (LC-MS/MS) method. For Ct determination, the samples were first incubated in a water bath at 37 °C for 3 h. After incubation, they were transferred to ultrafiltration tubes and centrifuged at 14,000 rpm for 20 min at 4 °C using a centrifuge (Sigma 3K-15) from Sigma Laborzentrifugen GmbH (Osterode am Harz, Germany). After centrifugation, 10 μL of the ultrafiltrate was mixed with 990 μL of plasma, vortexed, and analyzed for concentration using the same LC-MS/MS method. […]

The subject of a further data set is MDA-MB-231. Also on record: method as in PMID 32690258. Particulars: MDA-MB-231, in vitro; cited from earlier work.
In another data set the test system is Smo. Also on record: method as in PMID 32690258. The conditions noted are these: preliminary studies; cited from earlier work.
For data set [4], the system named is CYP450 enzymes in human liver microsomes. The data set is described as follows: Metabolic enzyme phenotype of TPB15 in human liver microsomes with selective CYP450 inhibitors. Type of data set: in vitro ADME.
Procedure: The specific procedure was as follows: a total of 0.5 μL of the substrate TPB15 and 0.5 μL of each specific inhibitor were mixed with 449 μL of human liver microsomes, and the mixture was incubated at 37 °C for 10 min. Subsequently, 50 μL of NADPH with a concentration of 10 mM in PBS were introduced to initiate the reaction. After 90 min, 50 μL of the reaction mixture were transferred to a 150 μL ice-cold methanol solution containing an internal standard to terminate the reaction. The mixture was vortexed for 2 min and then centrifuged at 4 °C at 14,800 rpm for 10 min. A volume of 130 μL of the supernatant was then transferred to a new EP tube, which was centrifuged again at 4 °C at 14,800 rpm for another 10 min. Finally, 5 μL of the supernatant were injected for the determination of substrate TPB15 concentration. Three parallel samples were prepared for each time point. The experiment also included a positive control group and a negative control group. In the positive control group, substrate TPB15 was incubated with human liver microsomes for 90 min without the addition of inhibitors. In the negative control group, the substrate TPB15 was incubated for 90 min without inhibitors, with human liver microsomes replaced by an equal volume of phosphate-buffered saline (PBS). The metabolic rate of TPB15 in human liver microsomes was represented by the elimination rate of the substrate TPB15.
The test system of data set [5] is normal mammary epithelial cells (MCF10A). Also on record: method as in PMID 32690258. The conditions noted are these: read-out: half-maximal inhibitory concentration (IC50) on normal mammary epithelial cells (MCF10A); cited from earlier work.
Details of data set [6]: method as in PMID 39158678. Particulars: pharmacokinetic studies in rats; cited from earlier work.
The nature of data set [7]: Plasma protein binding by ultrafiltration, monkey plasma. Type of data set: in vitro ADME, cynomolgus monkey. On the procedure: To prepare plasma samples of TPB15 at final concentrations of 4, 8, and 16 μg/mL, 1 μL of TPB15 dissolved in dimethyl sulfoxide (DMSO) at low (400 μg/mL), medium (800 μg/mL), and high (1600 μg/mL) concentrations was added to 99 μL of blank plasma obtained from humans, rats, mice, monkeys, and dogs. Each concentration was prepared in six replicates. The samples were then divided into two groups: one for determining the pre-ultrafiltration concentration (Cpre) and the other for measuring the post-ultrafiltration concentration (Ct), following the evaluation of the non-specific binding coefficient (NSB) of TPB15 to the ultrafiltration tubes. For Cpre determination, 10 μL of the sample was mixed with 990 μL of plasma, vortexed thoroughly, and analyzed for drug concentration using the previously reported liquid chromatography–tandem mass spectrometry (LC-MS/MS) method. For Ct determination, the samples were first incubated in a water bath at 37 °C for 3 h. After incubation, they were transferred to ultrafiltration tubes and centrifuged at 14,000 rpm for 20 min at 4 °C using a centrifuge (Sigma 3K-15) from Sigma Laborzentrifugen GmbH (Osterode am Harz, Germany). After centrifugation, 10 μL of the ultrafiltrate was mixed with 990 μL of plasma, vortexed, and analyzed for concentration using the same LC-MS/MS method. The formula for calculating the plasma protein binding rate (PPB) is as follows: PPB (%) = [1 − Ct/(1 − NSB)/Cpre] × 100%. (NSB: non-specific binding coefficient. […]).

Turning to `O=C(Nc1ccc(Cl)c(-c2nnc3c(Cl)cccn23)c1)c1ccc(Cl)nc1Cl` [TPB15], the “Remaining proportion of substrate TPB15 (%) KM mice” value in the data set “Stability in mice plasma” (incubation 0 min) is 100.0 ± 0.7%; in the data set “Stability in mice plasma” (incubation 30 min), 98.6 ± 0.9%; in the data set “Stability in mice plasma” (incubation 60 min) it was 98.0 ±1.5%; in the data set “Stability in mice plasma” (incubation 90 min), 97.1 ± 0.7%; in “Stability in mice plasma” (incubation 120 min) it was 98.0 ± 1.2%. Besides, the “remaining proportion of TPB15 in liver microsomes” value in [1] (Sprague-Dawley rat microsomes, 90 min, 5 μM TPB15, 0.5 mg/mL, NADPH 1 mM) is 76.0 ± 0.89%; in data set [2] (beagle dog microsomes, 90 min, 5 μM TPB15, 0.5 mg/mL, NADPH 1 mM), 90.3 ± 3.54%. In addition, the microsomal CLint at 5 μM in data set [1] (Sprague-Dawley, rat, liver microsomes, RLM, 5 μM TPB15, 0.5 mg/mL microsomes, read-out: CLint (mL/min/mg), in vitro intrinsic clearance rate) was 0.0344 mL/min/mg; in data set [2] (beagle, dog, liver microsomes, DLM, 5 μM TPB15, 0.5 mg/mL microsomes, read-out: CLint (mL/min/mg), in vitro intrinsic clearance rate), 0.0132 mL/min/mg. Further, the half-life at 5 μM in data set [2] (beagle, dog, liver microsomes, DLM, 5 μM TPB15, 0.5 mg/mL microsomes, read-out: T1/2 (min), in vitro elimination half-life) was determined as 630 min. Also, the “inhibition of proliferation of TNBC cell line” value with MDA-MB-468 and in the data set on MDA-MB-231 was “significantly inhibits the proliferation” throughout. Besides, the fraction unbound at 3 h in data set [3] (SD (rat), KM (mouse), beagle (dog)) was in the range of 0.176 to 0.191; in data set [3] (mouse, rat, dog), 0.176 to 0.185; in [7] (monkey plasma, 4 to 16 μg/mL, read-out: average plasma protein binding rates, range over concentrations) it was 0.178 to 0.188. The “binding to the Smo target” value in the data set on Smo is “effectively binds to the Smo target”. Besides, the “primary metabolic enzymes involved in TPB15 metabolism” value in data set [4] is “CYP2C9 and CYP3A4”. In addition, in data set [5], the IC50 is 169 µM. For the same compound, the half-life in rats entry in [6] is recorded as “relatively long half-life”. This compound also gave a fraction unbound at 3 h, 4 μg/mL in [7] (cynomolgus monkey, plasma, 4 μg/mL TPB15, ultrafiltration, 37 °C 3 h) of 0.185. In data set [7] (cynomolgus monkey, plasma, 8 μg/mL TPB15, ultrafiltration, 37 °C 3 h), this compound had a fraction unbound at 3 h, 8 μg/mL of 0.188. Further, the fraction unbound at 3 h, 16 μg/mL in [7] (cynomolgus monkey, plasma, 16 μg/mL TPB15, ultrafiltration, 37 °C 3 h) was 0.178.

Values taken from publication PMC12030497, “Plasma Protein Binding, Biostability, Metabolite Profiling, and CYP450 Phenotype of TPB15 Across Different Species: A Novel Smoothened Inhibitor for TNBC Therapy” (Pharmaceutics, 2025).
